In PMC10756276, “Highly specific σ2R/TMEM97 ligand FEM-1689 alleviates neuropathic pain and inhibits the integrated stress response” (Proceedings of the National Academy of Sciences of the …, 2023):
“Also recorded” adds a separate entry of the source. Like-named read-outs stand apart in the source and are kept apart here.

Legend:
D4 = D4 (Homo sapiens, UniProt P21917); assay: PDSP competitive binding assay; details: 10 µM test article; read-out: Ki: primary assay inhibition of radioligand binding, D4
Chain of D4 (P21917 whole entry): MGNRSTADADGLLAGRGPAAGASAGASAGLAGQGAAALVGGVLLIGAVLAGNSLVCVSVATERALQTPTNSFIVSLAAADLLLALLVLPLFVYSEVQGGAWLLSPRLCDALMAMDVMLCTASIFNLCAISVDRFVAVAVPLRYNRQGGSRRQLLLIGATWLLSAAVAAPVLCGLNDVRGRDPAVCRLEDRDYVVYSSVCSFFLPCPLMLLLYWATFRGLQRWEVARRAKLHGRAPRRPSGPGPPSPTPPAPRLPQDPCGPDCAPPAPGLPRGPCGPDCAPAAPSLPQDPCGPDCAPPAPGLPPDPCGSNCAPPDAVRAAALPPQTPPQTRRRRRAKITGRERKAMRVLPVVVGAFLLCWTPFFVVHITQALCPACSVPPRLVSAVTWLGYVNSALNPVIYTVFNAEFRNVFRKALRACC

BZP Rat Brain = assay: PDSP competitive binding assay
Beta1 = target: T1, Beta1 (Homo sapiens, UniProt P08588); assay: PDSP competitive binding assay; details: 10 µM test article; read-out: Ki: primary assay inhibition of radioligand binding, Beta1
T1 construct: purchased NIMH Psychoactive Drug Screening Program (PDSP), University of North Carolina at Chapel Hill
T1 sequence (P08588 whole entry): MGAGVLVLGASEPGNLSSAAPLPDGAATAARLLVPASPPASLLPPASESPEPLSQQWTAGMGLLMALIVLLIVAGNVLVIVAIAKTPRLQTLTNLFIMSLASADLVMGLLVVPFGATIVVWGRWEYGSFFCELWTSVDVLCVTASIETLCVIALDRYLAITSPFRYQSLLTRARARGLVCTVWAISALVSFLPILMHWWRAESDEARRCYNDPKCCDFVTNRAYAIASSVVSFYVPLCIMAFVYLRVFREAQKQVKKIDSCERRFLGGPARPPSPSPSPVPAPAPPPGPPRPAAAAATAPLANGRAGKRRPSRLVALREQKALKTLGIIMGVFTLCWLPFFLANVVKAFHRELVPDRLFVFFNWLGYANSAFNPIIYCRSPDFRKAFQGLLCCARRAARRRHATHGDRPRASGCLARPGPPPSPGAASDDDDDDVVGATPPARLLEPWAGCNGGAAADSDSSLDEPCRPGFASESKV

σ1R = σ1R (Homo sapiens, UniProt Q99720); assay: Competition binding with [3H]-(+)-pentazocine (NIMH PDSP)
Chain of σ1R (Q99720 whole entry): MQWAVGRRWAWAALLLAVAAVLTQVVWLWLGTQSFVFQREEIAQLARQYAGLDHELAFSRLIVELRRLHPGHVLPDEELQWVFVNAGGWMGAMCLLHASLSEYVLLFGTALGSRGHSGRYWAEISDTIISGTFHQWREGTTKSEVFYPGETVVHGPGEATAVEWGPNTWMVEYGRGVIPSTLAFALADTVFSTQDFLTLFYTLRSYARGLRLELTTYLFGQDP

D3 = D3 (Homo sapiens, UniProt P35462); assay: PDSP competitive binding assay; details: 10 µM test article; read-out: Ki: primary assay inhibition of radioligand binding, D3
Chain of D3 (P35462 whole entry): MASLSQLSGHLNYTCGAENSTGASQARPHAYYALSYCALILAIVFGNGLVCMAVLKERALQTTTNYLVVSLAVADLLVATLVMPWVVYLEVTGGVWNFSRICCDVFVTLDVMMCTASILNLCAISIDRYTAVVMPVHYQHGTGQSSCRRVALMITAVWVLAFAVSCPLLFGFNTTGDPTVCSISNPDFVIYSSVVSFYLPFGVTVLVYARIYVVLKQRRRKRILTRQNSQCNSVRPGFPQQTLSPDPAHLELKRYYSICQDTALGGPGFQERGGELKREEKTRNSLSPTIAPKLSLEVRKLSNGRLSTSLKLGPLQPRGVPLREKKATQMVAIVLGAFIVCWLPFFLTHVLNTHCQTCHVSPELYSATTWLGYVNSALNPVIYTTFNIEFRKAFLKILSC

[1] = Pharmacokinetic parameters after IP dosing (Fig. 2); assay type: in vivo
Alpha1d = target: T2, Alpha1d (Homo sapiens, UniProt P25100); assay: PDSP competitive binding assay; details: 10 µM test article; read-out: Ki: primary assay inhibition of radioligand binding, Alpha1d
T2 construct: purchased NIMH Psychoactive Drug Screening Program (PDSP), University of North Carolina at Chapel Hill
T2 sequence (P25100 whole entry): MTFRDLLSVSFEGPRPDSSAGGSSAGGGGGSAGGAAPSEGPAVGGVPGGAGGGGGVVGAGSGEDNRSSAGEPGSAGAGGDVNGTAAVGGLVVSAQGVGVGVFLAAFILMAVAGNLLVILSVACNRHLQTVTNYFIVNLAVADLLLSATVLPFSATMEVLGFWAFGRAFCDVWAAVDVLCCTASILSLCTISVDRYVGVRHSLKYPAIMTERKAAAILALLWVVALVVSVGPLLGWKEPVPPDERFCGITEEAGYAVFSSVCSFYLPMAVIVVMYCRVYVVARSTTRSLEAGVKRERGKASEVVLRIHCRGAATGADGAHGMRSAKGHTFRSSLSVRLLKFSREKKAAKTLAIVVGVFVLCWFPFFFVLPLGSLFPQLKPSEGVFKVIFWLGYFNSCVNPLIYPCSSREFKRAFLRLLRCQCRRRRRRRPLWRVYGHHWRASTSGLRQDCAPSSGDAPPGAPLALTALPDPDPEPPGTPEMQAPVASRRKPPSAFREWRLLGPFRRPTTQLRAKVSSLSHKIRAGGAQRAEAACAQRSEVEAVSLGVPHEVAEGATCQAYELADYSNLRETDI

H1 = target: T3, H1 (Homo sapiens, UniProt P35367); assay: PDSP competitive binding assay; details: 10 µM test article; read-out: Ki: primary assay inhibition of radioligand binding, H1
T3 construct: purchased NIMH Psychoactive Drug Screening Program (PDSP), University of North Carolina at Chapel Hill
T3 sequence (P35367 whole entry): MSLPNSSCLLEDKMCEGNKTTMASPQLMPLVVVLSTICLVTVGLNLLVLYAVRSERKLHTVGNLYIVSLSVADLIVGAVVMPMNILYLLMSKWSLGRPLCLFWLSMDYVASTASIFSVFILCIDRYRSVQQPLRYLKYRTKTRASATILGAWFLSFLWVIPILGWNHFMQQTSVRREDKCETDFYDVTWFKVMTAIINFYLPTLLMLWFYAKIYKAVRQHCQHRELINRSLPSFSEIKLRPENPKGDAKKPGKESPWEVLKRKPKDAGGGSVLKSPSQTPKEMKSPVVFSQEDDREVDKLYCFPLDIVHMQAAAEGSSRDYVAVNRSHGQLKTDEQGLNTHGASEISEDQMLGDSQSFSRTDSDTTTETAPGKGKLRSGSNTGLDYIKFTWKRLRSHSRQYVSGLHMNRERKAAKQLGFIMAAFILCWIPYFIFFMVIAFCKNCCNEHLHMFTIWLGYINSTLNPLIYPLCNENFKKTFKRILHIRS

D1 = D1 (Homo sapiens, UniProt P21728); assay: PDSP competitive binding assay; details: 10 µM test article; read-out: Ki: primary assay inhibition of radioligand binding, D1
Chain of D1 (P21728 whole entry): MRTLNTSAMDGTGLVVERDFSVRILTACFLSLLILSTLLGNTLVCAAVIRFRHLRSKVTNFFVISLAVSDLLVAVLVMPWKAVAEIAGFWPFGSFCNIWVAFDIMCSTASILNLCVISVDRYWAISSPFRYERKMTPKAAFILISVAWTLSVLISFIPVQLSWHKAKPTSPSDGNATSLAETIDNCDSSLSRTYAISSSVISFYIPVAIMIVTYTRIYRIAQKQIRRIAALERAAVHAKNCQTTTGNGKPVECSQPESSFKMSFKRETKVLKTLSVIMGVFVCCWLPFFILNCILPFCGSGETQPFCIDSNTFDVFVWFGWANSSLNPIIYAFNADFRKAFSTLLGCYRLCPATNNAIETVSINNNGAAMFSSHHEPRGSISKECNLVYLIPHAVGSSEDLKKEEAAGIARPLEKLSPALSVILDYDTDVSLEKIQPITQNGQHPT

5HT1B = target: T4, 5HT1B (Homo sapiens, UniProt P28222); assay: PDSP competitive binding assay; details: 10 µM test article; read-out: Ki: primary assay inhibition of radioligand binding, 5HT1B
T4 construct: purchased NIMH Psychoactive Drug Screening Program (PDSP), University of North Carolina at Chapel Hill
T4 sequence (P28222 whole entry): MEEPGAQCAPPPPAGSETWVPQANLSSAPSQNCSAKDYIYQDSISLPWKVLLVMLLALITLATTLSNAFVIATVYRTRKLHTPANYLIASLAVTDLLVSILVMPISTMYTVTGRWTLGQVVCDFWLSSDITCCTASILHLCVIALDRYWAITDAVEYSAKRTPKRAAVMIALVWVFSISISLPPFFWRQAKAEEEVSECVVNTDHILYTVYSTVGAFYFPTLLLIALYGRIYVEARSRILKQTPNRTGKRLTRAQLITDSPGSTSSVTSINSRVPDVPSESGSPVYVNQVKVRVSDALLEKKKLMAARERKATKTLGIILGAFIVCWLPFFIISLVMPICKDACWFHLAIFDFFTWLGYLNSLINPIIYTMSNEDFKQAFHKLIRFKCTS

5HT6 = 5HT6 (Homo sapiens, UniProt P50406); assay: PDSP competitive binding assay; details: single determination
Chain of 5HT6 (P50406 whole entry, species assumed): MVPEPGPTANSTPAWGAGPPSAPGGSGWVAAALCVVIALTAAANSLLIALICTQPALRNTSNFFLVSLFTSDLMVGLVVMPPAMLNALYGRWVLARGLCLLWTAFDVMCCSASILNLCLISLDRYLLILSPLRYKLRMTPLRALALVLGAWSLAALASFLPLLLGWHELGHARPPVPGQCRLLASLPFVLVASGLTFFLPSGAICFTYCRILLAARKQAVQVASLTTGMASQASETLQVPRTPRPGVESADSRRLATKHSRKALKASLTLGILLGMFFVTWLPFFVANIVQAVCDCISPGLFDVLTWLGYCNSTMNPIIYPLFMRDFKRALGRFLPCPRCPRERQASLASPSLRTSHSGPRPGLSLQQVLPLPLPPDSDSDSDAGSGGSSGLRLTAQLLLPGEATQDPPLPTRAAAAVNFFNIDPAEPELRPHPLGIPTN

M4 = target: T5, M4 (Homo sapiens, UniProt P08173); assay: PDSP competitive binding assay; details: 10 µM test article; read-out: Ki: primary assay inhibition of radioligand binding, M4
T5 construct: purchased NIMH Psychoactive Drug Screening Program (PDSP), University of North Carolina at Chapel Hill
T5 sequence (P08173 whole entry): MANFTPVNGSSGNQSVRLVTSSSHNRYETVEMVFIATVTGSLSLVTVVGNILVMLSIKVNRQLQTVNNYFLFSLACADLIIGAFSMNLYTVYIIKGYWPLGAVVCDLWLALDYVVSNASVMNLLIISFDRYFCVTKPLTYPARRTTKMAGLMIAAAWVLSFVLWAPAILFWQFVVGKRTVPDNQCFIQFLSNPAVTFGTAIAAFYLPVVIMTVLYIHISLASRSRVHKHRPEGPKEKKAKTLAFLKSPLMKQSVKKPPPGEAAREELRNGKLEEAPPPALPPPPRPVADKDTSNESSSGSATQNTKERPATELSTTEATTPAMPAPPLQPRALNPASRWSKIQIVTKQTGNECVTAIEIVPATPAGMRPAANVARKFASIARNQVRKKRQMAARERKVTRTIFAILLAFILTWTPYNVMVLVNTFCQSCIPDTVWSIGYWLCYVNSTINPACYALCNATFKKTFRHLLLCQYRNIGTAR

H4 = H4 (Homo sapiens, UniProt Q9H3N8); assay: PDSP competitive binding assay
Chain of H4 (Q9H3N8 whole entry): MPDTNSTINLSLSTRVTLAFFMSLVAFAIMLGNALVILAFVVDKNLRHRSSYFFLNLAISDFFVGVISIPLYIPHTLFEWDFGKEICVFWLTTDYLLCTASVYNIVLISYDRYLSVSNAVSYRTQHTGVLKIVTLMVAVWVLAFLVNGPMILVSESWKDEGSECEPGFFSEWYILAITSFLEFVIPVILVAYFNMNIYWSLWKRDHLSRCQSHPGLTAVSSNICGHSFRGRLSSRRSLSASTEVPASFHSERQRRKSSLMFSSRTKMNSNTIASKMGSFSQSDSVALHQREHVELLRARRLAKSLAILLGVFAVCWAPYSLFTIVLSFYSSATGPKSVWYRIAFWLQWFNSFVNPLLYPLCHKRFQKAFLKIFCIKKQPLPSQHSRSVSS

mouse DRG neurons = assay: Neurite outgrowth, Sholl analysis; assay type: cell-based; details: 100 nM, wild-type neurons
Method: Sholl analysis was performed using the Neuroanatomy plugin in ImageJ according to the authors’ recommendations ([77]). Only solitary cells were used for analysis. The area under the curve was calculated using GraphPad Prism. More details are available in SI Appendix. […]
gently layered onto 3 mL of 10% bovine serum albumin (BSA, BioPharm #71- 040-002) in HBSS in a 15 ml falcon tube. T his BSA gradient containing the cells was centrifuged at 900g for 5 min at room temperatur e.
The pellet containing the cells was resuspended in Br ainPhys media (STEMCell #05790) containing 2% […]
1% Gluta Max (Gibco # 350 5 0061). Hu man DRG ne uron s were plated a nd grown o n glass coverslips coate d with po ly-D-lysine (Sigma #P7405). C ultured D RG neurons were plated for 24 hours before being treated.
Methylglyoxal (Sigma- Aldrich #M0252) and F EM- 1689 were serially diluted in media.
Mouse samples - DRG cultures […]
anesthesia and decapitated. […]
section above with minor differences.
Mouse DRG neurons were grown in
SAS-0132 and DKR-1677 were […]
dissolved in 100% DMSO to a final concentr ation of 200mM and stored at - 20 °C. and DKR-1677 were serially diluted in media. […]
Cultured mouse DRG neur ons from wild- type and TMEM97KO animals were treated w ith either vehicle or FEM-1689 (100 nM). […] The area under the curve was calculated using Graph Pad […]

[2] = dose response curve, given as LogKi with negative sign

## OCCCN1CC[C@@H]2C[C@H]1c1cc(-c3ccc(C(F)(F)F)cc3)ccc12 [FEM-1689]
D4
  inhibition at 10 µM: < 50%
BZP Rat Brain; [2]
  LogKi, BZP Rat Brain: -5.18
BZP Rat Brain; dose response curve, read-out: Ki, BZP Rat Brain
  Ki: 6.59 µM
BZP Rat Brain; single determination, read-out: BZP Rat Brain Ki
  Ki: 6.59 µM
Beta1
  inhibition at 10 µM: < 50%
σ1R
  Ki: 0.206 µM
σ1R; ratio of Ki
  selectivity for σ2R/TMEM97 vs σ1R: 10 fold
σ1R; read-out: σ1R Ki, averages ± SD
  Ki: 0.167 ± 0.054 µM
D3
  inhibition at 10 µM: < 50%
[1]; IP
  brain to plasma ratio (AUClast): 20.5
[1]; brain, IP
  Cmax (IP): 10916 ng/mL
  t1/2 (IP): 11.4 h
[1]; pharmacokinetic experiments, Fig. 2
  brain entry: readily enters the brain
[1]; plasma, IP
  Cmax (IP): 508 ng/mL
  t1/2 (IP): 21.7 h
Alpha1d
  inhibition at 10 µM: < 50%
H1
  inhibition at 10 µM: < 50%
D1
  inhibition at 10 µM: < 50%
5HT1B
  inhibition at 10 µM: < 50%
5HT6
  Ki: > 10 µM
M4
  inhibition at 10 µM: < 50%
H4; [2]
  LogKi, H4: -5.26
H4; read-out: H4 Ki, single determination
  Ki: 5.51 µM
H4; read-out: Ki, H4, dose response curve
  Ki: 5.51 µM
Mouse DRG neurons
  neurite outgrowth (Sholl analysis): increase in the number and complexity of neurites in wild-type neurons; also recorded: promoted neurite outgrowth in wild-type neurons
